pIC50: −log10 of the molar value. A value given as a limit tells only on which side of the number the result lay.

We go through 2 molecules from article PMC12186255, “Discovery and Characterization of Small Molecule Inhibitors Targeting Exonuclease 1 for Homologous Recombination-Deficient Cancer Therapy” (ACS Chemical Biology, 2025).

The target in one assay is T1, FEN1 (Homo sapiens, UniProt P39748).
T1 construct: made in house
As to the kind of experiment: Analogous FRET-based counter screen with purified FEN1. It counts as biochemical. The conditions noted are these: FRET-based assay, maximum inhibitor concentration 100 μM. As for the experimental part: Data were normalized by subtracting the relative fluorescence unit (RFU) of the blank sample from that of each EXO1-containing reaction. The relative activity of individual compounds was subsequently calculated by setting the corrected RFU of EXO1 with DMSO as 100% and comparing the corrected RFU for each condition to the DMSO value. Each assay was performed by sequentially adding experimental compounds, the EXO1 enzyme, and the DNA substrate to minimize starting differences. […] Following IC50 screening, an analogous FRET-based assay was performed using purified FEN1 to assess the EXO1 specificity of each compound.
For subsequent hit confirmation, 84 compounds from the primary screen were picked from our internal stock and subjected to a dose-dependent response assay starting at 100 μM with 3-fold serial dilution. To analyze the data from the dose-dependent response assay, IC50 values for each hit were calculated through nonlinear regression analysis using GraphPad Prism 10 (GraphPad Software, Inc.). […] Subsequently, a counter screen was performed to eliminate potential false-positive hits. To accomplish this, we established an analogous FRET assay using the purified FEN1 enzyme in place of EXO1.

For assay [1], the system named is MDA-MB-436 cells. Description: γ-H2AX immunofluorescence and Western blot (DSB burden). It counts as cell-based, human. Particulars: MDA-MB-436 parental (BRCA1-deficient) cells, 10 or 50 μM, overnight/24 h. As for the experimental part:
(b) Quantification of the relative γ-H2AX per nucleus from panel a. […] The intensity of the γ-H2AX bands correlates with the level of DSBs observed in the immunofluorescence images in panel a. […] Strong γ-H2AX foci are observed, indicating an increased burden of DSBs. […] (e) Quantification of the relative γ-H2AX per nucleus is depicted in panel d. […] The intensity of the γ-H2AX bands correlates with the level of DSBs observed in the immunofluorescence images in panel d.
Cells were seeded at a density of 3× 10^5 cells per well in 12-well plates with preplaced coverslips and treated with or without various inhibitor treatments overnight. Cells were then incubated with EdU for 30 min before collection. For PARylation analysis, cells were permeabilized with 0.1% Triton X100, fixed with 4% paraformaldehyde, blocked with the Image-iT FX signal enhancer (Invitrogen), and incubated (1.5 h, RT) with the indicated primary antibodies (PAR/pADPr Antibody; Biotechne). […] The slides were then washed with the PBS buffer, counterstained with DAPI, and analyzed with a fluorescence microscope (Zeiss Observer Z1). […] The slides were then washed with the PBS buffer, incubated with the Click-iT reaction mix for EdU as aforementioned, counterstained with DAPI, and analyzed with a fluorescence microscope (Zeiss Observer Z1).
In general terms: A western blot detects proteins with antibodies after separation by electrophoresis.

The subject of assay [2] is MDA-MB-436 cells. Description: S-phase PARylation immunofluorescence. It counts as cell-based, human. The conditions noted are these: MDA-MB-436 BRCA1− and BRCA1+ cells, 10 or 50 μM overnight. As for the experimental part: (b) Quantification of the relative PARylation per nucleus from panel a. […] Strong PARylation foci are observed in BRCA1– cells. […] (d) Quantification of the relative PARylation per nucleus from panel c.
Cells were seeded at a density of 3× 10^5 cells per well in 12-well plates with preplaced coverslips and treated with or without various inhibitor treatments overnight. Cells were then incubated with EdU for 30 min before collection. For PARylation analysis, cells were permeabilized with 0.1% Triton X100, fixed with 4% paraformaldehyde, blocked with the Image-iT FX signal enhancer (Invitrogen), and incubated (1.5 h, RT) with the indicated primary antibodies (PAR/pADPr Antibody; Biotechne). The cells were then washed with PBS buffer and incubated (1 h, RT) with the corresponding secondary antibodies (1:200, Invitrogen). Subsequently, the fixed cells were incubated with the Click-iT reaction mix (100 mM Tris-HCl pH 8.5, […], 1 mM CuSO4, and 100 mM ascorbic acid (Sigma-Aldrich)) for 1 h at RT. The slides were then washed with the PBS buffer, counterstained with DAPI, and analyzed with a fluorescence microscope (Zeiss Observer Z1). […] The slides were then washed with the PBS buffer, incubated with the Click-iT reaction mix for EdU as aforementioned, counterstained with DAPI, and analyzed with a fluorescence microscope (Zeiss Observer Z1).

Another assay relates to MDA-MB-231 cells. Description: Gel-based phospho-RPA end resection assay. Format: cell-based, human. Particulars: inhibitor overnight then 2 μM CPT 2 h, C5 10 μM. As for the experimental part:
The levels of RPA32 and phosphorylated RPA32 (S33) were analyzed by Western blotting using antibodies against RPA32 and phosphorylated RPA32 (S33). The total level of tubulin was used as a control. (b) Ratio of P-RPA:RPA levels calculated from panel a. […] U2OS cells carrying a GFP reporter for HR were infected with adenovirus expressing the I-SceI restriction enzyme. […] U2OS cells carrying a GFP reporter for HR were infected with adenovirus expressing the I-SceI restriction enzyme. […] For panels c and d, after 48 h, the cells were harvested, and the GFP-positive cells were analyzed by flow cytometry. Values are the mean ± S.D. of three independent experiments.
The treated cells were then lysed in the SDS-PAGE sample buffer, and the lysate was separated by SDS-PAGE prior to immobilization on a nitrocellulose membrane and Western blotting. Antibodies against unphosphorylated RPA, S33-P-RPA2, and tubulin were subsequently assayed according to the manufacturer’s recommendations. The ratio of P-RPA/RPA levels were quantified via ImageJ.

The next assay has as its system U2OS cells. As to the kind of experiment: Homologous recombination assay (HR-GFP reporter). Format: cell-based, human. Particulars: I-SceI, 0, 10, 50, 100 μM, 48 h. As for the experimental part: Following viral infection, the culture medium was replaced with a fresh medium containing small molecule inhibitors. […] Subsequently, cells were harvested, and GFP-positive frequencies indicative of HR repair events were quantified using a CyAn ADP Analyzer (Beckman Coulter, Inc.). Experiments were performed in triplicate, and data are presented as mean ± standard deviation (S.D.).

The subject of assay [3] is subset of the NCI-60 cell line panel plus FG, AsPC1, CaPan2 (31 cell lines). Description: Tumor cell line drug profiling, CellTiter Glo, whole panel. Format: cell-based. Particulars: Homo sapiens, 72 h, read-out: IC50 values across the cell line panel. As for the experimental part: (§1) We tested the cytotoxicity of representative compounds from the seven EXO1i scaffolds against a subset of the NCI-60 cell line panel along with three additional pancreatic cell lines (FG, AsPC1, and CaPan2). In general, cells were seeded in 384-well tissue culture-treated plates overnight and treated with various concentrations of each hit compound (a serial 3-fold dilution from 50 μM for all tested hits). Each concentration was performed in duplicate. Cell viability was then measured by CellTiter Glo (Promega) after 72 h of treatment.

The test system of a further assay is MDA-MB-468. As to the kind of experiment: Cell line drug profiling, CellTiter Glo. Format: cell-based, human. Particulars: Homo sapiens, MDA-MB-468, 72 h. As for the experimental part:
as §1
In general terms: In ATP-based viability assays light output follows the ATP content of the culture.

T1 sequence (P39748 whole entry): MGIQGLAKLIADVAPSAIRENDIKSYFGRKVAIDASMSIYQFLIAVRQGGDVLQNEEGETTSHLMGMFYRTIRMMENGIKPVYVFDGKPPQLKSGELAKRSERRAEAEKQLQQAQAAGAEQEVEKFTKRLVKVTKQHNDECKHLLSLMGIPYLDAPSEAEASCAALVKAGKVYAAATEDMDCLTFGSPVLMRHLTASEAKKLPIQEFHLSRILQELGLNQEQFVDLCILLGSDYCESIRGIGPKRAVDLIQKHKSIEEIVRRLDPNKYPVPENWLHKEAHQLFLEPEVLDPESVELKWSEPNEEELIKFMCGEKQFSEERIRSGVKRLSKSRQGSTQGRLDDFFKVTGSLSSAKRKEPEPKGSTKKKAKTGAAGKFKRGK

Consider `COC(=O)c1nc(-c2ccc(OC)cc2)nc(O)c1O` [C200], for which the pIC50 (commonly the negative decadic logarithm of the IC50, by convention in mol/L) at FEN1 is below 4.00; in assay [3], below 4.30; in the assay on MDA-MB-468 it was below 4.30. In the assay with MDA-MB-436 cells [1], the “γ-H2AX levels (unresolved DSBs)” value was “no effect”. The “S-phase PARylation” value in the assay on MDA-MB-436 cells [2] is “no effect”. Moreover, the “CPT-induced P-RPA levels (DNA end resection)” value in the assay with MDA-MB-231 cells was “significantly reduced”. Moreover, the “HR frequency (GFP-positive cells)” value with U2OS cells is on record as “no significant changes”.

As for `Cc1cccc(N2CCN(c3ccc(NS(=O)(=O)c4ccccc4)c(C(=O)O)c3)CC2)c1C` [F684], the values for the pIC50 (against FEN1; in assay [3]; in the assay on MDA-MB-468) were below 4.00, 4.60 to 4.82 and 4.63, respectively. In addition, the “γ-H2AX levels (unresolved DSBs)” value in the assay with MDA-MB-436 cells [1] was “significant increase”. For the same molecule, the “S-phase PARylation” value in the assay on MDA-MB-436 cells [2] is given as “additive effect”. Besides, the “CPT-induced P-RPA levels (DNA end resection)” value in the assay with MDA-MB-231 cells is reported as “significantly reduced”. In addition, in the assay on U2OS cells, the “HR frequency (GFP-positive cells)” value was “inhibition of HR that increased with dose”.
